According to patent US7429582B2, “Dihydro[1,4]oxazino[2,3,4-hi]indazole derivatives as 5-hydroxytryptamine-6 ligands and use thereof in the treatment of attention deficit disorders” (Wyeth, priority 2006, dated 2008):
pKi: −log10 of the molar value. Structures can show the parent of a compound that is named as a salt.

target: T1, human cloned 5-HT6 receptors (Homo sapiens, UniProt P50406); details: [3H]-LSD 3.0 nM, 120 minutes at room temperature, Hela cell membranes; read-out: 5-HT6 Binding Ki
T1 construct: expressed in transfected cells; host or cells: Hela cells
T1 sequence (P50406 whole entry): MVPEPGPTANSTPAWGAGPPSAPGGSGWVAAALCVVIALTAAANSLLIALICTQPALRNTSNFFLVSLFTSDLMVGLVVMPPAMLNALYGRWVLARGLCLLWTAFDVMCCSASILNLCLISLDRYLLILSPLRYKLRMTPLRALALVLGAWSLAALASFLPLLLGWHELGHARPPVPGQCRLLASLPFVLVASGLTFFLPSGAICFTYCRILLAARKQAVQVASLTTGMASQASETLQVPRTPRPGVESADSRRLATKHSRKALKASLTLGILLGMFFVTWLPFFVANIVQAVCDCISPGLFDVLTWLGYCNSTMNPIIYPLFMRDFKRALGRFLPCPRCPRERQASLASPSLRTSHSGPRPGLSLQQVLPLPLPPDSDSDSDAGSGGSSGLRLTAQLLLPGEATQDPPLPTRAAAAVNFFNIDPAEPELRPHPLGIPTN
Description: This operation was repeated.
The reaction was allowed to proceed in the dark for 120 minutes at room temperature, at which time, the bound ligand-receptor complex was filtered off on a 96 well unifilter with a Packard Filtermate® 196 Harvester. The bound complex caught on the filter disk was allowed to air dry and the radioactivity is measured in a Packard TopCount® equipped with six photomultiplier detectors, after the addition of 40.0 μl Microscint®-20 scintillant to each shallow well. The unifilter plate was heat-sealed and counted in a PackardTopCount® with a tritium efficiency of 31.0%.
Binding in the presence of varying concentrations of test compound was expressed as a percentage of specific binding in the absence of test compound. The results were plotted as log % bound versus log concentration of test compound. […] A linear regression line of data points was plotted, from which the IC50 value is determined and the Ki value is determined based upon the following equation: Ki=IC50/(1+L/KD) where L was the concentration of the radioactive ligand used and KD is the dissociation constant of the ligand for the receptor, both expressed in nM.

SMILES	pKi
O=S(=O)(c1cccc2ccccc12)c1nn2c3c(cccc13)OC(CN1CCCCC1)C2 (stereo not drawn) [Example 8, 6-(1-Naphthylsulfonyl)-2-(piperidin-1-1ylmethyl)-2,3-dihydro[1,4]oxazino[2,3,4-hi]indazole Hydrochloride]	6.80
O=S(=O)(c1cccc2ccccc12)c1nn2c3c(cccc13)OC(CN1CCCC1)C2 (stereo not drawn) [Example 7, 6-(1-Naphthylsulfonyl)-2-(Pyrrolidin-1-1ylmethyl)-2,3-dihydro[1,4]oxazino[2,3,4-hi]indazole Hydrochloride]	8.52
CN(C)CC1Cn2nc(S(=O)(=O)c3cccc4ccccc34)c3cccc(c32)O1 (stereo not drawn) [Example 6, N,N-dimethyl-1-[6-(1-naphthylsulfonyl)-2,3-dihydro[1,4]oxazino[2,3,4-hi]indazol-2-yl]methanamine Hydrochloride]	8.80
